The subject of test [1] is dry eye model induced by 0.2% benzalkonium chloride solution. The test is described as follows: Benzalkonium chloride dry eye model: corneal fluorescein sodium staining score. The following applies: for Corneal fluorescein staining scores (x ± s): total score of 16 points. In kind it is in vivo, C57BL/6 mice. As for the experimental part:
The healthy male C57BL/6 mice were kept in a controlled environment with a temperature of (25±1)° C., a relative humidity of (25±5)%, and light-dark cycles (9 AM-9 PM) with simulated dawn and dusk. Forty mice (80 eyes) were treated with 5 μL of 0.2% benzalkonium chloride solution twice a day (8:00 AM and 6:00 PM) for 14 days to induce dry eye symptoms, while the remaining ten mice (20 eyes) received no treatment and served as a baseline control. Modeling was carried out on the 15th day; and the dry eye rat models were screened based on tear film break-up time (BUT), fluorescein sodium staining of corneal, and Schirmer's test I for tear secretion. Fluorescein sodium staining was carried out to determine if there any epithelial damage in the corneal of mice; one drop of 1% fluorescein sodium solution was instilled into the conjunctival sac of the mouse eyes; after 1 minute, the corneal epithelial stained by fluorescein sodium was observed under the cobalt blue filter on the slit lamp. Scoring criteria: the cornea was divided into 4 quadrants; and a scoring system was used to assess the staining; each quadrant was given a score ranging from 0 to 4 points, with a total score of 16 points. A score of 0 indicated no staining; 1 point represented less than 30 punctate staining spots; 2 points represented more than 30 punctate staining spots but not diffuse; 3 points represented obviously diffuse staining but no patchy staining; 4 points represented patchy staining. […] Group A, the drug treatment group, was treated with the eye drops comprising 0.1% TAT-[…] peptide, four times a day; Group B, the solvent control group, was treated with eye drops without TAT-[…] peptide, four times a day; and Group C, the blank control group, received no treatment; on days 1, 4, and 7 after treatment, BUT, Schirmer's test I, and fluorescein sodium staining were performed; on the 7th day, the paraffin sections of the conjunctival fornix was stained by PAS stain; and the number of PAS-positive goblet cells was counted.

Test [2] shares this test system. The experiment in a line: Benzalkonium chloride dry eye model: conjunctival goblet cells (PAS staining). It counts as in vivo, C57BL/6 mice. On the procedure: The healthy male C57BL/6 mice were kept in a controlled environment with a temperature of (25±1)° C., a relative humidity of (25±5)%, and light-dark cycles (9 AM-9 PM) with simulated dawn and dusk. Forty mice (80 eyes) were treated with 5 μL of 0.2% benzalkonium chloride solution twice a day (8:00 AM and 6:00 PM) for 14 days to induce dry eye symptoms, while the remaining ten mice (20 eyes) received no treatment and served as a baseline control. […] Group A, the drug treatment group, was treated with the eye drops comprising 0.1% TAT-[…] peptide, four times a day; Group B, the solvent control group, was treated with eye drops without TAT-[…] peptide, four times a day; and Group C, the blank control group, received no treatment; on days 1, 4, and 7 after treatment, BUT, Schirmer's test I, and fluorescein sodium staining were performed; on the 7th day, the paraffin sections of the conjunctival fornix was stained by PAS stain; and the number of PAS-positive goblet cells was counted.

Test [3] concerns rabbit model of dry eye (0.1% benzalkonium chloride). The test is described as follows: Rabbit model of dry eye: conjunctiva appearance and fluorescein staining. In kind it is in vivo, New Zealand white rabbits. On the procedure:
1.2.1 Grouping: thirty New Zealand white rabbits were randomly divided into three groups, each comprising 10 rabbits: a blank control group, a solvent control group, and a drug treatment group.
1.2.2 Preparation of a rabbit model of dry eye: the right eye of each rabbit was used to establish a dry eye rabbit model by administering 0.1% benzalkonium chloride eye drops twice a day for 4 weeks. After 4 weeks, the dry eye rabbit model was evaluated, with the conjunctiva appearing dry, tear production being reduced, and Schirmer test values being less than 10 mm/5 min (compared to the control group, where all Schirmer test values were above 10 mm).
1.2.3 Drug preparation and usage: a liquid formulation of 0.1% TAT-N16 peptide eye drops were prepared by dissolving the peptide raw materials in physiological saline according to a weight ratio of 0.1%. The eye drops comprising 0.1% TAT-N16 peptide were administered 2 drops, 3 times a day for 7 days. The blank control group received no treatment, and the solvent control group received physiological saline eye drops 2 drops, 3 times a day for 7 days. The normal eye group served as a normal control group.
1.3 Specimen collection and animal testing were conducted by the same individual. The examination time, location, illumination brightness, and temperature were consistent throughout the experiment. The rabbit conjunctiva appearance, fluorescein staining, tear film break-up time were analyzed using a slit lamp before and on days 4 and 7 after treatment; additionally, the Schirmer's test and conjunctival impression cytology (CIC) were carried out.

The subject of test [4] is volunteers diagnosed with dry eye syndrome. The test is described as follows: Population experiment: volunteers with dry eye syndrome. It counts as in vivo, human. The following applies: 0.1% eye drops, 1-2 drops. The source says:
Currently, volunteers have been recruited to test the dry eye therapeutic effect of the 0.1% TAT-N16 peptide eye drops disclosed by the disclosure.

The mark [5] stands for this setting: single cases, three (case 4: three to five) times a day.

“Also recorded” adds a separate entry of the source.

Take “TAT-N16 peptide: cell-penetrating artificial peptide, sequence SEQ ID NO: 2, constructed by linking the peptide N16 to a TAT sequence; P55PIK inhibitor (YGRKKRRQRRRMMPYSTELIFYIEMDP)”: the Corneal fluorescein staining scores (x ± s) is 8.29 ± 1.31 in test [1] (0 d (baseline), drug treatment group, 0.1% eye drops); 4.12 ± 0.81 in test [1] (4 d, 0.1% eye drops four times a day); 2.79 ± 1.25 in test [1] (7 d, 0.1% eye drops four times a day). Further, the “Corneal fluorescein staining score compared with blank control group, model control group and solvent control group” value in test [1] (4th day of treatment) was “significantly lower”; in test [1] (7 days of continuous treatment, P<0.05), “significantly lower”. Moreover, the “Density of conjunctival goblet cells compared with blank control group and solvent control group” value in test [2] (7 days of continuous treatment, P<0.01, FIG. 4) was “significantly higher”. For the same substance, in test [2] (after treatment with the eye drops), the “Number of conjunctival goblet cells (PAS-stained paraffin sections of the conjunctival fornix)” value is recorded as “increased significantly”. Besides, the “Appearance of the rabbit conjunctiva” value is listed as “improved” in test [3] (after 4 days of treatment) and “appeared moist” in test [3] (after 7 days of treatment). Also, the “Dot-like and patchy fluorescein staining on the conjunctiva” value in test [3] (after 4 days of treatment) is “decreased”. Moreover, the “Fluorescein staining on the conjunctiva” value in test [3] (after 7 days of treatment) is given as “no staining was observed”. The “Dry eye symptoms within three days of use” value in test [4] (single case, three times a day) is listed as “significantly improved”. Also, the “Conjunctival congestion after a week of use” value in test [4] (setting [5]) was “cleared up; also recorded: disappeared”. For the same substance, in test [4] (setting [5]), the “Dry eye symptoms after a week of use” value is recorded as “essentially disappeared; also recorded: mostly disappeared; also recorded: disappeared completely; also recorded: largely eliminated”. Further, in test [4] (single cases, three times a day), the “Dry eye symptoms on the first day of use” value is on record as “improved significantly; also recorded: significantly relief”.

The values are drawn from patent publication US20230348538A1, “METHOD FOR TREATMENT OF DRY EYE COMPRISNG APPLYING P55PIK INHIBITOR” (Wuhan Yicheng Biological Technology Co., Ltd., priority 2020, published 2023).
